Measurements reported in US11332452B2, “Pesticidal compositions and methods” (priority 2019, dated 2022).

Experiments:
Assay type in all cases: in vivo
[1] = system: Yellow Fever Mosquito (Aedes aegypti, AEDSAE); assay: Insecticidal test for yellow fever mosquito (YFM), 96-well plate larval assay; details: from 4000 ppm DMSO master solution, diluted; about 1 day-old larvae; room temperature; scored after 3 days
Protocol: Insecticidal Test for Yellow Fever Mosquito (Aedes aegypti, AEDSAE) (“YFM”)
Master plates containing 400 μg of a molecule dissolved in 100 μL of dimethyl sulfoxide (DMSO) (equivalent to a 4000 ppm solution) are used. A master plate of assembled molecules contains 15 μL per well. To this plate, 135 μL of a 90:10 water/acetone mixture is added to each well. A robot (Biomek® NXP Laboratory Automation Workstation) is programmed to dispense 15 μL aspirations from the master plate into an empty 96-well shallow plate (“daughter” plate). There are 6 reps (“daughter” plates) created per master. The created “daughter” plates are then immediately infested with YFM larvae.
The day before plates are to be treated, mosquito eggs are placed in Millipore water containing liver powder to begin hatching (4 g. into 400 mL). After the “daughter” plates are created using the robot, they are infested with 220 μL of the liver powder/larval mosquito mixture (about 1 day-old larvae). After plates are infested with mosquito larvae, a non-evaporative lid is used to cover the plate to reduce drying. Plates are held at room temperature for 3 days prior to grading. After 3 days, each well is observed and scored based on mortality.

[2] = system: Beet Armyworm (Spodoptera exigua, LAPHEG); assay: Insecticidal test for beet armyworm (BAW), 128-well diet tray assay; details: 168 h, 50 μg/cm^2 of test compound on artificial diet, second instar larvae, 25° C., five to seven days, average of eight wells, read-out: BAW % Control (or Mortality) rating
Protocol: Insecticidal Test for Beet Armyworm (Spodoptera exigua, LAPHEG) (“BAW”)
(§1) Bioassays on beet armyworm (BAW; Spodoptera exigua: Lepidoptera) are conducted using a 128-well diet tray assay. One to five second instar BAW larvae are placed in each well (3 mL) of the diet tray that had been previously filled with 1 mL of artificial diet to which 50 μg/cm^2 of the test compound (dissolved in 50 μL of 90:10 acetone-water mixture) had been applied (to each of eight wells) and then allowed to dry. Trays are covered with a clear self-adhesive cover, vented to allow gas exchange, and held at 25° C., 14:10 light-dark for five to seven days. Percent mortality is recorded for the larvae in each well; activity in the eight wells is then averaged.

[3] = system: Cabbage Looper (Trichloplusia Ni, TRIPNI); assay: Insecticidal test for cabbage looper (CL), 128-well diet tray assay; details: Trichoplusia ni, 168 h, read-out: CL % Control (or Mortality) rating
Protocol: Insecticidal Test for Cabbage Looper (Trichloplusia Ni, TRIPNI) (“CL”)
as §1, with “cabbage looper (CL; Trichloplusia ni:” for “beet armyworm (BAW; Spodoptera exigua:”, “CL” for “BAW”

Compound	YFM % Control (or Mortality) rating [1]	mortality at 50 µg/cm2 [2] [%]	mortality at 50 µg/cm2 [3] [%]
CC(Cc1ccc(NC(=O)Nc2ccc(OC(F)(F)F)cc2)cc1)NC(=O)/N=C1\SCC(=O)N1c1cc(Cl)ccc1OC(F)(F)F (stereo not drawn) [Compound A36, (Z)-1-(4-(2-(3-(3-(5-Chloro-2-(trifluoromethoxy)phenyl)-4-oxothiazolidin-2-ylidene)ureido)propyl)phenyl)-3-(4-(trifluoromethoxy)phenyl)urea]	A (80-100)	50 to 100	50 to 100
Cc1ccc(C(C)C)c(N2C(=O)CS/C2=N\C(=O)Nc2ccc(NS(=O)(=O)c3ccc(OC(F)(F)F)cc3)cc2)c1 [Compound A51, (Z)—N-(4-(3-(3-(2-isopropyl-5-methylphenyl)-4-oxothiazolidin-2-ylidene)ureido)phenyl)-4-(trifluoromethoxy)benzenesulfonamide]	B (More than 0-Less than 80)	0	50 to 100
Cc1ccc(C(C)C)c(N2C(=O)CS/C2=N\C(=O)Nc2ccc(CCNC(=O)c3ccc(OC(F)(F)F)cc3)cc2)c1 [Compound A50, (Z)—N-(4-(3-(3-(2-isopropyl-5-methylphenyl)-4-oxothiazolidin-2-ylidene)ureido)phenethyl)-4-(trifluoromethoxy)benzamide]	A (80-100)	50 to 100	50 to 100
Cc1ccc(C(C)C)c(N2C(=O)CS/C2=N\C(=O)Nc2ccc(CCNC(=S)Nc3ccc(OC(F)(F)F)cc3)cc2)c1 [Compound A47, (Z)-1-(3-(2-isopropyl-5-methylphenyl)-4-oxothiazolidin-2-ylidene)-3-(4-(2-(3-(4-(trifluoromethoxy)phenyl)thioureido)ethyl)phenyl)urea]	A (80-100)	50 to 100	50 to 100
Cc1ccc(C(C)C)c(N2C(=O)CS/C2=N\C(=O)Nc2ccc(C(=O)NNc3ccc(OC(F)(F)F)cc3)cc2)c1 [Compound A2, (Z)-1-(3-(2-Isopropyl-5-methylphenyl)-4-oxothiazolidin-2-ylidene)-3-(4-(2-(4-(trifluoromethoxy)phenyl)hydrazine-1-carbonyl)phenyl)urea]	A (80-100)	50 to 100	50 to 100
O=C(/N=C1\SCC(=O)N1c1cc(Cl)ccc1OCC(F)(F)F)NCCc1ccc(NC(=O)Nc2ccc(OC(F)(F)F)cc2)cc1 [Compound A17, (Z)-1-(4-(2-(3-(3-(5-Chloro-2-(2,2,2-trifluoroethoxy)phenyl)-4-oxothiazolidin-2-ylidene)ureido)ethyl)phenyl)-3-(4-(trifluoromethoxy)phenyl)urea]	A (80-100)	50 to 100	50 to 100
Cc1ccc(C(C)C)c(-n2ccs/c2=N\C(=O)NCCc2ccc(NC(=O)Nc3ccc(OC(F)(F)F)cc3)cc2)c1 [Compound A22, (Z)-1-(4-(2-(3-(3-(2-Isopropyl-5-methylphenyl)thiazol-2(3H)-ylidene)ureido)ethyl)phenyl)-3-(4-(trifluoromethoxy)phenyl)urea]	A (80-100)	50 to 100	50 to 100
Cc1ccc(OCC(F)(F)F)c(N2C(=O)CS/C2=N\C(=O)NCCc2ccc(NC(=O)Nc3ccc(OC(F)(F)F)cc3)cc2)c1 [Compound A19, (Z)-1-(4-(2-(3-(3-(5-Methyl-2-(2,2,2-trifluoroethoxy)phenyl)-4-oxothiazolidin-2-ylidene)ureido)ethyl)phenyl)-3-(4-(trifluoromethoxy)phenyl)urea]	B (More than 0-Less than 80)	50 to 100	50 to 100
Cc1cc(N2C(=O)CS/C2=N\C(=O)NCCc2ccc(NC(=O)Nc3ccc(OC(F)(F)F)cc3)cc2)c(C(C)C)cc1F [Compound A25, (Z)-1-(4-(2-(3-(3-(4-Fluoro-2-isopropyl-5-methylphenyl)-4-oxothiazolidin-2-ylidene)ureido)ethyl)phenyl)-3-(4-(trifluoromethoxy)phenyl)urea]	A (80-100)	50 to 100	50 to 100
CC(C)c1ccccc1N1C(=O)CS/C1=N\C(=O)Nc1ccc(N/N=C/c2ccc(OC(F)(F)F)cc2)cc1 [Compound A54, 1-((Z)-3-(2-isopropylphenyl)-4-oxothiazolidin-2-ylidene)-3-(4-(2-((E)-4-(trifluoromethoxy)benzylidene)hydrazinyl)phenyl)urea]	A (80-100)	50 to 100	50 to 100
Cc1ccc(C(C)C)c(N2C(=O)CS/C2=N\C(=O)NCCc2ccc(NC(=O)c3ccc(OC(F)(F)F)cc3)cc2)c1 [Compound A49, (Z)—N-(4-(2-(3-(3-(2-isopropyl-5-methylphenyl)-4-oxothiazolidin-2-ylidene)ureido)ethyl)phenyl)-4-(trifluoromethoxy)benzamide]	A (80-100)	50 to 100	0
Cc1ccc(C(C)C)c(N2C(=O)CS/C2=N\C(=O)Nc2ccc(NNC(=O)c3ccc(OC(F)(F)F)cc3)cc2)c1 [Compound A4, (Z)-1-(3-(2-isopropyl-5-methylphenyl)-4-oxothiazolidin-2-ylidene)-3-(4-(2-(4-(trifluoromethoxy)benzoyl)hydrazinyl)phenyl)urea]	A (80-100)	50 to 100	50 to 100
CC(C)c1ccccc1N1C(=O)CS/C1=N\C(=O)NCCc1ccc(NC(=O)Nc2ccc(C(F)(F)F)cc2)cc1 [Compound A12, (Z)-1-(4-(2-(3-(3-(2-Isopropylphenyl)-4-oxothiazolidin-2-ylidene)ureido)ethyl)phenyl)-3-(4-(trifluoromethyl)phenyl)urea]	A (80-100)	50 to 100	50 to 100
CCC(C)Oc1ccc(C)cc1N1C(=O)CS/C1=N\C(=O)NCCc1ccc(NC(=O)Nc2ccc(OC(F)(F)F)cc2)cc1 (stereo not drawn) [Compound A20]	B (More than 0-Less than 80)	50 to 100	50 to 100
CCC(C)Oc1ccc(C)cc1N1C(=O)CS/C1=N\C(=O)NC(C)Cc1ccc(NC(=O)Nc2ccc(OC(F)(F)F)cc2)cc1 (stereo not drawn) [Compound A39, (Z)-1-(4-(2-(3-(3-(2-(sec-Butoxy)-5-methylphenyl)-4-oxothiazolidin-2-ylidene)ureido)propyl)phenyl)-3-(4-(trifluoromethoxy)phenyl)urea]	D (No activity noticed in this bioassay)	50 to 100	50 to 100
CC(Cc1ccc(NC(=O)Nc2ccc(OC(F)(F)F)cc2)cc1)NC(=O)/N=C1\SCC(=O)N1c1ccccc1C(C)C (stereo not drawn) [Compound A34, (Z)-1-(4-(2-(3-(3-(2-Isopropylphenyl)-4-oxothiazolidin-2-ylidene)ureido)propyl)phenyl)-3-(4-(trifluoromethoxy)phenyl)urea]	A (80-100)	50 to 100	50 to 100
Cc1ccc(OCC(F)(F)F)c(N2C(=O)CS/C2=N\C(=O)NC(C)Cc2ccc(NC(=O)Nc3ccc(OC(F)(F)F)cc3)cc2)c1 (stereo not drawn) [Compound A38, (Z)-1-(4-(2-(3-(3-(5-Methyl-2-(2,2,2-trifluoroethoxy)phenyl)-4-oxothiazolidin-2-ylidene)ureido)propyl)phenyl)-3-(4-(trifluoromethoxy)phenyl)urea]	B (More than 0-Less than 80)	50 to 100	50 to 100
Cc1ccc(C(C)C)c(-n2ccs/c2=N\C(=O)NC(C)Cc2ccc(NC(=O)Nc3ccc(OC(F)(F)F)cc3)cc2)c1 (stereo not drawn) [Compound A33, (Z)-1-(4-(2-(3-(3-(2-Isopropyl-5-methylphenyl)thiazol-2(3H)-ylidene)ureido)propyl)phenyl)-3-(4-(trifluoromethoxy)phenyl)urea]	A (80-100)	50 to 100	50 to 100
